From PMC7153937, “Imipridone Anticancer Compounds Ectopically Activate the ClpP Protease and Represent a New Scaffold for Antibiotic Development” (Genetics, 2020)

Target: T1, S. aureus ClpP (Staphylococcus aureus, UniProt Q2G036)
T1 construct: S. aureus ClpP expressed from the GAL1 promoter in S. cerevisiae
Test: yeast surrogate genetic assay: ClpP-dependent growth inhibition vs. empty vector
Type: cell-based

T1 sequence (Q2G036 whole entry): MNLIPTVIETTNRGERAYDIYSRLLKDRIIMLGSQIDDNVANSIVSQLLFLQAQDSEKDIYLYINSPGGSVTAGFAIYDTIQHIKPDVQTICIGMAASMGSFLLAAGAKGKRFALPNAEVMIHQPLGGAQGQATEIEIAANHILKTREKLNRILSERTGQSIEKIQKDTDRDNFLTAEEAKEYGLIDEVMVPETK

O=C1C2=C(CCN(Cc3ccccc3)C2)N2CCN=C2N1Cc1ccc(C(F)(F)F)cc1 [ONC212]
IC50: 5.4 µM
